{"source": "patent US20240360091A1", "about": "“GLUN2B-SUBUNIT SELECTIVE ANTAGONISTS OF THE N-METHYL-D-ASPARTATE RECEPTORS WITH ENHANCED POTENCY AT ACIDIC PH” (Emory University, priority 2021, published 2024)", "key": {"human GluN1/GluN2B": {"molecular_target": "human GluN1/GluN2B (Homo sapiens (Human), UniProt Q05586+Q13224)", "sequence (Q13224 27-1484, other chains not shown)": "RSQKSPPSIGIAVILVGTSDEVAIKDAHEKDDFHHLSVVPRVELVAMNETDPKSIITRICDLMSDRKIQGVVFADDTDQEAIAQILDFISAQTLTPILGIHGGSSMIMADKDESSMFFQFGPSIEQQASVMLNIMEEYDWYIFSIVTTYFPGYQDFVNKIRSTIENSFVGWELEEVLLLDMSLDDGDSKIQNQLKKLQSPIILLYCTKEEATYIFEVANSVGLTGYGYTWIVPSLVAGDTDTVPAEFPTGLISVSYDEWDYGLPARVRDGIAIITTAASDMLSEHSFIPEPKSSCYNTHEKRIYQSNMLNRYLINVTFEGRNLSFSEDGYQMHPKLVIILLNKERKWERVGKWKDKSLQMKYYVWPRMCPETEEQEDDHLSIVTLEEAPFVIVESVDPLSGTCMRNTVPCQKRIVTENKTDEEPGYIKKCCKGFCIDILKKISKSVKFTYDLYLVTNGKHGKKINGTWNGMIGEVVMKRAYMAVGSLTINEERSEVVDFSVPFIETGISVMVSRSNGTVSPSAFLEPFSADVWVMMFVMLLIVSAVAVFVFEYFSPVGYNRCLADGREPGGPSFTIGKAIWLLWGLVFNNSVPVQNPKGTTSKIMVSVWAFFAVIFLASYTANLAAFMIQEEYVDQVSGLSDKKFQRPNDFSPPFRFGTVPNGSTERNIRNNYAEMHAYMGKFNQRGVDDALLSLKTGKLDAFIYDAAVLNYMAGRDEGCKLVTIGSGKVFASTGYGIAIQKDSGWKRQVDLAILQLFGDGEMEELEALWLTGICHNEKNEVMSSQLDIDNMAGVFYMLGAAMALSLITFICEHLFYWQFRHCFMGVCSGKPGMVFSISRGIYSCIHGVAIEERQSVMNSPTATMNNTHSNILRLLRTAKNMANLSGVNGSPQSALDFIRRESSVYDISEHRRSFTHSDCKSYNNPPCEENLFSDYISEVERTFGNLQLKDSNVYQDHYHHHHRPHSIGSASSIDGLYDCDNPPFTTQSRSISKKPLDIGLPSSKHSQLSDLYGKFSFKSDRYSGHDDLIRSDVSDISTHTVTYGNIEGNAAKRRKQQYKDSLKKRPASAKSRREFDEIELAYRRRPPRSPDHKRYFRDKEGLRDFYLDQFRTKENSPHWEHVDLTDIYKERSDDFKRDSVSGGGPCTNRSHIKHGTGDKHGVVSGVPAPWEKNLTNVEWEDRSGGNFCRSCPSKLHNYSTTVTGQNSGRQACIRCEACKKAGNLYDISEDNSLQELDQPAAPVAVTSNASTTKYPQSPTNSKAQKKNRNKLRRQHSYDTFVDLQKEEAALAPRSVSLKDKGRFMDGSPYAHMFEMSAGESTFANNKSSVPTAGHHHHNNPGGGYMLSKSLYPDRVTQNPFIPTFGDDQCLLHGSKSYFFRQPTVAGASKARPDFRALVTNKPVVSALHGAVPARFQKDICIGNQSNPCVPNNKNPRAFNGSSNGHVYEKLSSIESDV", "experiment": "Two electrode voltage-clamp recordings from Xenopus laevis oocytes, GluN2B potency and pH dependence", "assay_type": "cell-based", "protocol": "Two Electrode Voltage-Clamp Recordings from Xenopus laevis Oocytes\nStage V-VI Xenopus laevis unfertilized oocytes were purchased from Ecocyte (Austin, Texas) and injected with 5 ng of GluN1 and 10 ng of GluN2B cRNAs. The cDNAs for human GluN1 and GluN2B, encoding NCBI reference sequences NM_007327.3 and NM_000834.3, respectively, were linearized and cRNAs made as previously described (Traynelis et al., J Neurosci, 1998, 18(16):6163-75). After injection, the oocytes were incubated in Barth's culture solution (88 mM NaCl, 1 mM KCl, 2.4 mM NaHCO3, 10 mM HEPES, 0.82 mM MgSO4, 0.33 mM Ca(NO3)2, 0.41 mM CaCl2), 10 U/mL PenStrep, and 0.1 mg/mL gentamycin, pH 7.4) at 18° C. Two electrode voltage-clamp (TEVC) recordings were made at 22-23° C., 2-7 days after the injection, using Warner OC725C amplifiers (VHOLD=−40 mV). Briefly, the oocytes were perfused in a recording solution (90 mM NaCl, 1 mM KCl, 10 mM HEPES, 0.01 mM EDTA, and 0.5 mM BaCl2) adjusted to either pH 7.6 or 6.9 by addition of NaOH or HCl, respectively (pH 6.9 solutions were prepared by addition of HCl to pH 7.6 solutions to maintain an equal concentration of Na^+ ions in both solutions). Concentration-response curves of the compounds were obtained by application of increasing concentrations of each individual compound until steady state conditions were obtained, in the presence of saturating agonist concentrations (i.e., 100 μM glutamate and 30 μM glycine). In general, oocyte recordings were made from 4-10 oocytes per experiment (i.e., oocyte injection cycle) from ≥two experiments. The concentration-response relationship for each oocyte was fit by equation (1),\nPercent Response=(100−minimum)/(1+([concentration]/IC50)^nH)+minimum (1)\nwhere minimum is the residual response in saturating concentration of each individual compound (constrained to be ≥0), and IC50 is the concentration of compound that causes half-maximal inhibition, and nH is the Hill slope."}, "[1]": {"experiment": "Liver microsome stability, human", "assay_type": "in vitro ADME", "settings": "1 μM, with cofactors, one-hour incubation at 37° C.", "protocol": "Metabolic stability was assessed using human and mouse liver microsomes (Xenotech, USA). The final composition of the assay included 1 μM of the test compound or reference standards (imipramine and diclofenac sodium) prepared from DMSO or acetonitrile stock, so that the final concentration of DMSO and acetonitrile was 0.2% and 0.8%, respectively. The test compound was incubated with 0.5 mg/mL microsomal protein without (100 mM potassium phosphate buffer alone, pH 7.4) or with cofactors (5.0 mM glucose-6-phosphate, 0.06 U glucose-6-phosphate dehydrogenase, 2.0 mM MgCl2, 1.0 mM NADP^+/NADPH). The test compound and standards were incubated at 37° C. with human and mouse liver microsomes; aliquots of the reaction mixture (100 μL) were removed at 0, 5, 15, 30, 60 and 120 min. The reaction in the aliquots was stopped by the addition of 2.5 mL tert-butyl methyl ether and the samples were subjected to shaking for 15 min. […] The percent of the test compound remaining after the specified incubation period was calculated with respect to the peak areas of the test compound at time 0 min.\nThe compound and standards were incubated with human and mouse liver microsomes with or without cofactors, and the samples were extracted and analyzed using LC-MS/MS, as described above."}, "[2]": {"experiment": "Plasma protein binding, rapid equilibrium dialysis, dog", "assay_type": "in vitro ADME", "settings": "n=1", "protocol": "Plasma protein binding was performed with a rapid equilibrium dialysis (RED) device containing dialysis membrane with a molecular weight cut-off of 8,000 Daltons according to the manufacturer's instructions (ThermoFisher, USA). The plasma samples (pH 7.4) and the test compound solution (1 or 5 μM) or reference standards (Warfarin and Propranolol, 10 μM) were combined (DMSO final conc 0.1%). 300 μL of this spiked plasma sample was added to the sample chamber, and 500 μL of blank PBS buffer (pH 7.4) was added into the buffer chamber. The RED device was sealed with adhesive film and then incubated at 37° C. with shaking at 300 rpm for 4 h. Following incubation, an aliquot (50 μL) was removed from each well (spiked plasma and buffer side) and diluted with equal volume of the corresponding opposite matrix (blank buffer or blank plasma) to nullify the matrix effect, and then extracted for analysis by LC-MS/MS. The amount of free material was determined by:\n% Free=(LC-MS/MS peak area of test compound in buffer side/LC-MS/MS peak area of test compound in plasma side)×100%"}, "hERG potassium channel": {"molecular_target": "hERG potassium channel (Homo sapiens (Human), UniProt Q12809)", "sequence (Q12809 whole entry)": "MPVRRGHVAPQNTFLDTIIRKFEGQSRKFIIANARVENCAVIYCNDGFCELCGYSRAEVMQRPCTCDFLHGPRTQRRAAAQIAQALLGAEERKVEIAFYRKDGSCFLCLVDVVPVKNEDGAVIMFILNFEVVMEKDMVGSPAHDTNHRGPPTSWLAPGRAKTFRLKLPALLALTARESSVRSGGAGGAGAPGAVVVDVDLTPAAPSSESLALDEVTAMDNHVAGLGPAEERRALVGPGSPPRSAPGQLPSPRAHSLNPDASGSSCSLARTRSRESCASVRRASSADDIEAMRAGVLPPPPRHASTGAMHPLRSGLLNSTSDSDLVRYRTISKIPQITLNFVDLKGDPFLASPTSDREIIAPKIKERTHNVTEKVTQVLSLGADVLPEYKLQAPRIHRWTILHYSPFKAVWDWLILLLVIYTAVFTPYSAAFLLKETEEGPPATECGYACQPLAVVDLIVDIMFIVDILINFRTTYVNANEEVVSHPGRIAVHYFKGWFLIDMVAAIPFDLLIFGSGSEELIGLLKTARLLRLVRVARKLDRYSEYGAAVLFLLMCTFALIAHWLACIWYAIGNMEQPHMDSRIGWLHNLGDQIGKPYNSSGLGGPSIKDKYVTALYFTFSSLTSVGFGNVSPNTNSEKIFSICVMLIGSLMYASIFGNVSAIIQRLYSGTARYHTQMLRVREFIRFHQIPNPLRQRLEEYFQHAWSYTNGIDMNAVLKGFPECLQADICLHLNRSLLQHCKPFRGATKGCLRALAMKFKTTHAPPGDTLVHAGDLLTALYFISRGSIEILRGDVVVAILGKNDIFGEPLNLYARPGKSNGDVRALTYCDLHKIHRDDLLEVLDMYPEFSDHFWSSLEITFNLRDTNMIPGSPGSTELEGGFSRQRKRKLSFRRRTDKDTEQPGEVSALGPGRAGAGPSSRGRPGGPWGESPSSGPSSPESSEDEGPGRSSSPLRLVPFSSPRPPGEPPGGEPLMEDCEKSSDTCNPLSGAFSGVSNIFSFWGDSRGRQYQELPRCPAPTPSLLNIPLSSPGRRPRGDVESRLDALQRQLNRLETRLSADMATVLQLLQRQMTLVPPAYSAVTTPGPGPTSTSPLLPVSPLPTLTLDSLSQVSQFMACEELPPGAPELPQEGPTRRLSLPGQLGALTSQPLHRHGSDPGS", "experiment": "hERG potassium channel current, automatic patch clamp in HEK cells", "assay_type": "cell-based", "settings": "pH 7.4, patch clamp; read-out: Functional IC50 (μM) hERG", "protocol": "Each test concentration was tested in two or more cells (n≥2). Duration of exposure to each test article concentration was 3 minutes. A positive control (0.5 μM […]) was used to confirm the sensitivity of the cells to an hERG inhibitor."}}, "note": "Like-named read-outs stand apart in the source and are kept apart here.", "data": [{"molecule": "O=C1CCc2cc(OC[C@H](O)CN3CCN(c4ccc(C(F)(F)F)cc4)CC3)ccc2N1", "note": "[NP10679]", "values": [{"measurement": "IC50", "setting": "human GluN1/GluN2B; pH 6.9, read-out: IC50 (μM) pH 6.9", "result": 0.023, "unit": "µM"}, {"measurement": "IC50", "setting": "human GluN1/GluN2B; pH 6.9, read-out: IC50 value at pH 6.9", "result": 0.023, "unit": "µM"}, {"measurement": "IC50", "setting": "human GluN1/GluN2B; pH 7.6, read-out: IC50 (μM) pH 7.6", "result": 0.142, "unit": "µM"}, {"measurement": "IC50", "setting": "human GluN1/GluN2B; pH 7.6, read-out: IC50 value at pH 7.6", "result": 0.142, "unit": "µM"}, {"measurement": "pH Boost", "setting": "human GluN1/GluN2B; ratio of IC50 at pH 7.6 to IC50 at pH 6.9", "result": 6.2}, {"measurement": "percent remaining in human liver microsomes", "setting": "[1]", "result": 72, "unit": "%"}, {"measurement": "bound to dog plasma proteins", "setting": "[2]", "result": 98.2, "unit": "%"}, {"measurement": "IC50", "setting": "hERG potassium channel", "result": 0.617, "unit": "µM"}]}]}
